This is an account of results in patent US20180289702A1, “LPA LEVEL REDUCTION FOR TREATING CENTRAL NERVOUS SYSTEM DISORDERS” (priority 2015, published 2018).

Assay [1] concerns LPA species (LPA 16:0, 18:1, 18:2). As to the kind of experiment: LPA species in cerebrospinal fluid (LC-ESI-MS/MS). It is filed as in vivo. As to conditions: PRG-1 Ko mice, intraperitoneal injection. Here is the method: LPA analysis was performed with liquid chromatography-electrospray ionization-tandem mass spectrometry (LC-ESI-MS/MS). The LC-MS/MS system consisted in a hybrid triple quadrupole-ion trap QTrap 5500 mass spectrometer (AB Sciex, Germany) equipped with a Turbo-V-source operating in negative ESI mode, an Agilent 1200 binary HPLC pump, column oven (40° C.) and degasser and an HTC Pal autosampler.
Two cycles of […] extraction of LPAs were done with 1-buthanol after adding the internal standard LPA17:0 to the sample (50 μl sample, 20 μl internal standard in 500 μl 1-butanol). The combined organic phases were dried under a gentle stream of nitrogen at 45° C. and subsequently re-dissolved in 200 μl methanol.
For the chromatographic separation a C18 column (Mercury 20×2 mm, 3 μm, 100 Å) and precolumn were used (Phenomenex, Germany). A linear gradient was employed at 400 μl/min. Mobile phase A was water with ammonium formate 50 mM and formic acid (100:0.2, v/v) and mobile phase B acetonitrile/formic acid (100:0.1, v/v), total run time 7 min, injection volume 20 μl. The mass spectrometer operated in the negative ion mode with an electrospray voltage of −4500 V at 350° C. Multiple reaction monitoring (MRM) was used for quantification. […] Quantitation was performed with Analyst Software V1.5 (Applied Biosystems) using the internal standard method with 1/concentration^2 weighting. […]

Assay [2] concerns PRG-1+/− mice. As to the kind of experiment: pre-pulse inhibition (PPI) of the startle response in PRG-1+/− mice. The class given is in vivo. As to conditions: i.p. 3 hours prior to PPI, level not different to wt. The method, then: Animals were treated using the in-vivo potent autotaxin inhibitor PF 8380 (Gierse et al., 2010). Animals received a single i.p. injection 3 hours prior to PPI.

Assay [3] concerns PRG-1−/− neurons. Briefly: spontaneous postsynaptic currents (sPSC) with PF8380. The class given is cell-based, mice. As to conditions: 1 μm.
Assay [4] has as its system PRG1−/− mice. Briefly: simultaneous in-vivo recordings of MEC and hippocampal CA1 in freely moving mice. The method, then: Electrophysiological measurements in freely moving animals were performed as described (O'Neill PK et al. 2013). Briefly, animals were kept during surgical procedures under isoflurane anesthesia and electrodes (WE3PT10.5F3, MicroProbes, Gaithersburg, Md., USA) were chronically implanted in the medial entorhinal cortex (MEC; 3.1 mm, lateral to the midline, 0.2 mm anterior to the transverse sinus at an angle of 6° in the anterior-to-posterior direction in the sagittal plane) and in the hippocampal CA1-region (1.5 mm lateral to the midline, 1.5 mm anterior-to-posterior and 1.2 mm dorsal-to-ventral at an angle of 0°). The electrodes were connected to an electrode interface board (EIB-16; Neuralynx, USA) and were secured to the skull using jewelers screws and dental cement. Neural data was acquired using a 16-channel head stage and a Digital Lynx data acquisition system (Neuralynx, USA). The animal's position was monitored using two light-emitting diodes mounted on the head stage. To extract local field potentials, the neural signals were bandpass filtered between 1 and 1000 Hz and digitized at 2 kHz. Separate recordings, each lasting 10 minutes, were made while animals moved freely in their home cage in an open field (0.5 m×0.5 m×0.5 m) and in a plus-maze with a length of 0.4 m per arm. Recordings were repeated for two days. Analysis of neural and behavioral data was performed using custom-written MATLAB scripts (MathWorks). Recording location was verified by current application at the end of the experiment after which animals were perfused, and the brains were cut on a vibratome and Nissl stained using cresyl violet.
Coherence of neuronal activity between the MEC and in the CA1 was computed using the multitaper method (MATLAB routines provided by K. Harris, University College London, London, UK, and G. Buzsáki, New York University, New York, N.Y., USA). […] Power was calculated by taking the absolute value of the wavelet transform and averaged across time to obtain the power spectrum. […]

The test system of assay [5] is PRG-1 Ko mice. As to the kind of experiment: mEPSC recordings with PF8380, PRG-1 Ko. It is filed as cell-based. As to conditions: 1 μM.

On to `O=C(CCN1CCN(C(=O)OCc2cc(Cl)cc(Cl)c2)CC1)c1ccc2[nH]c(=O)oc2c1` [PF8380, 4-[3-(2,3-Dihydro-2-oxo-6-benzoxazolyl)-3-oxopropyl]-1-piperazinecarboxylic acid (3,5-dichlorophenyl)methyl ester], for which the “main LPA species (LPA 16:0, 18:1, 18:2) in CSF” value in assay [1] is recorded as “significant decrease”. Also, the PPI-deficit result in assay [2] is “significantly rescued”. For the same compound, in assay [3], the sPSC amplitude result is recorded as “not affecting” and the “spontaneous postsynaptic currents (sPSC)” value is “significantly reduced”. For the same compound, the “gamma coherence between MEC and CA1” value in assay [4] (PF8380 treated PRG1−/− mice) is given as “reduced to WT levels”. Further, the “peak frequency of theta coherence between MEC and CA1” value in assay [4] (PF8380 treated PRG1−/− mice compared with WT mice) is listed as “lower”. Besides, the “average movement speed during exploratory behavior in the open field” value in assay [4] (wild type, untreated and PF8380-treated PRG-1−/− mice) is reported as “no difference”. In addition, in assay [5], the mEPSC amplitude entry is “not influencing” and the mEPSC frequency result is “significantly reduced”.
